# Experimental data reported in PubChem BioAssay AID330 (DTP/NCI, 2004).
# Several values for one entry are separate records, joined by “and”; a condition that tells them apart may be missing. Equal entries are not always repeated. Toxic doses and inconclusive results are not listed.
# System: P388 leukemia ip, CD2F1 mice, survival T/C
# Assay: NCI In Vivo Anticancer Drug Screen. Data for tumor model P388 Leukemia (intraperitoneal) in CD2F1 (CDF1) mice
# Details: endpoint: median survival time, higher = longer survival
# How it was run: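 Mice carrying the transplanted tumor received test compound or vehicle. Survival was recorded in each group, and the value is the treated-group measurement divided by that of the vehicle-treated control group.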
# [1] = dose: 50.0 mg/kg/injection, schedule: Q01DX009 (ip), vehicle: saline with Tween-80
# [2] = dose: 100.0 mg/kg/injection, schedule: Q01DX009 (ip), vehicle: saline with Tween-80
smiles,measurement,setting,value
OC(C1CO1)C(O)C1CO1 (centres undefined),T/C,"dose: 0.5 mg/kg/injection, schedule: Q01DX005 (ip), vehicle: saline",113 % of control and 124 % of control
same,T/C,"dose: 0.5 mg/kg/injection, schedule: Q01DX009 (ip), vehicle: water",175 % of control
same,T/C,"dose: 1.0 mg/kg/injection, schedule: Q01DX009 (ip), vehicle: saline",167 % of control and 179 % of control
same,T/C,"dose: 1.0 mg/kg/injection, schedule: Q01DX009 (ip), vehicle: water",185 % of control
same,T/C,"dose: 1.3 mg/kg/injection, schedule: Q01DX005 (ip), vehicle: saline",121 % of control
same,T/C,"dose: 1.5 mg/kg/injection, schedule: Q01DX009 (ip), vehicle: saline",155 % of control and 196 % of control
same,T/C,"dose: 2.0 mg/kg/injection, schedule: Q01DX009 (ip), vehicle: saline with Tween-80",159 % of control
same,T/C,"dose: 2.0 mg/kg/injection, schedule: Q01DX009 (ip), vehicle: saline",194 % of control and 207 % of control
same,T/C,"dose: 2.0 mg/kg/injection, schedule: Q01DX009 (ip), vehicle: water",256 % of control
same,T/C,"dose: 3.0 mg/kg/injection, schedule: Q01DX005 (ip), vehicle: saline",170 % of control and 181 % of control
same,T/C,"dose: 3.0 mg/kg/injection, schedule: Q01DX009 (ip), vehicle: saline",227 % of control
same,T/C,"dose: 4.0 mg/kg/injection, schedule: Q01DX005 (ip), vehicle: saline",216 % of control and 229 % of control
same,T/C,"dose: 4.0 mg/kg/injection, schedule: Q01DX009 (ip), vehicle: saline with Tween-80",213 % of control
same,T/C,"dose: 4.0 mg/kg/injection, schedule: Q01DX009 (ip), vehicle: saline",291 % of control
same,T/C,"dose: 4.5 mg/kg/injection, schedule: Q01DX005 (ip), vehicle: saline",190 % of control and 225 % of control
same,T/C,"dose: 6.0 mg/kg/injection, schedule: Q01DX009 (ip), vehicle: saline",89 % of control
same,T/C,"dose: 6.7 mg/kg/injection, schedule: Q01DX001 (ip), vehicle: saline",157 % of control and 179 % of control
same,T/C,"dose: 6.7 mg/kg/injection, schedule: Q01DX005 (ip), vehicle: saline",266 % of control
same,T/C,"dose: 6.7 mg/kg/injection, schedule: Q04DX003 (ip), vehicle: saline",243 % of control and 254 % of control
same,T/C,"dose: 8.0 mg/kg/injection, schedule: Q01DX005 (ip), vehicle: saline",89 % of control
same,T/C,"dose: 8.0 mg/kg/injection, schedule: Q01DX009 (ip), vehicle: saline with Tween-80",100 % of control
same,T/C,"dose: 8.0 mg/kg/injection, schedule: Q01DX009 (ip), vehicle: saline",103 % of control
same,T/C,"dose: 10.0 mg/kg/injection, schedule: Q04DX003 (ip), vehicle: saline",281 % of control and 298 % of control
same,T/C,"dose: 12.5 mg/kg/injection, schedule: Q04DX003 (ip), vehicle: saline",108 % of control
same,T/C,"dose: 25.0 mg/kg/injection, schedule: Q01DX009 (ip), vehicle: saline with Tween-80",100 % of control
same,T/C,"dose: 25.0 mg/kg/injection, schedule: Q04DX003 (ip), vehicle: saline sonified",100 % of control
same,T/C,[1],104 % of control
same,T/C,"dose: 50.0 mg/kg/injection, schedule: Q04DX003 (ip), vehicle: saline sonified",100 % of control
same,T/C,[2],109 % of control
same,T/C,"dose: 100.0 mg/kg/injection, schedule: Q04DX003 (ip), vehicle: saline sonified",104 % of control
c1cnc2c(c1)C1OC(S2)c2cccnc2S1,T/C,[1],102 % of control
same,T/C,[2],97 % of control
O=C1OC(c2ccc(O)cc2)(c2ccc(O)cc2)c2ccccc21,T/C,"dose: 100.0 mg/kg/injection, schedule: Q04DX002 (ip), vehicle: saline with Tween-80",99 % of control
same,T/C,"dose: 200.0 mg/kg/injection, schedule: Q04DX002 (ip), vehicle: saline with Tween-80",103 % of control
same,T/C,"dose: 400.0 mg/kg/injection, schedule: Q04DX002 (ip), vehicle: saline with Tween-80",93 % of control
COc1ccc(/C=N/Nc2cc(C)nc3cc4c(cc23)OCO4)c2ccccc12,T/C,"dose: 1.56 mg/kg/injection, schedule: Q01DX005 (ip), vehicle: Klucel (hydroxypropylcellulose) (HPC)",109 % of control
same,T/C,"dose: 3.12 mg/kg/injection, schedule: Q01DX005 (ip), vehicle: Klucel (hydroxypropylcellulose) (HPC)",100 % of control
same,T/C,"dose: 6.25 mg/kg/injection, schedule: Q01DX005 (ip), vehicle: Klucel (hydroxypropylcellulose) (HPC)",100 % of control and 102 % of control
same,T/C,"dose: 12.5 mg/kg/injection, schedule: Q01DX005 (ip), vehicle: Klucel (hydroxypropylcellulose) (HPC)",110 % of control
